Results from patent US11857565B2, “Hydrophobic Auristatin F compounds and conjugates thereof” (priority 2018, dated 2024).
Starred links: 1 amine or outer side, 2 acyl side, 3 side chain; linkers in the order of their positions; H or OH if unused. Non-standard residues stand in square brackets, D forms with d. Residues, ends and D or L forms follow the SMILES beside them. *: point of attachment. Dolaproine = CO[C@@H]([C@@H]1CCCN1)[C@@H](C)C(=O)O; X2 = CC(C)[C@@H](C(=O)[*:2])N(C)CCCCCN(C)[*:1]; X5 = CC(C)[C@@H](C(=O)[*:2])N(C)CCCN(C)[*:1]; X7 = CC(C)[C@@H](C(=O)[*:2])N(C)CCN(C)[*:1]; Dil = CC[C@H](C)[C@H](NC)[C@@H](CC(=O)O)OC; X22 = CC(C)CCN(C)[C@H](C(=O)*)C(C)C; X23 = CCCN(CCC)[C@H](C(=O)*)C(C)C; X17 = CCN(CC)[C@H](C(=O)*)C(C)C; Boc = CC(C)(C)OC(=O)*

B1: h1F6-37(4): 4-load auristatin ADC targeting CD70: h1F6 antibody conjugated to drug linker compound 37 (conjugate, chains of the INN, looked up)
VH: QVQLVQSGAEVKKPGASVKVSCKASGYTFTNYGMNWVRQAPGQGLKWMGWINTYTGEPTYADAFKGRVTMTRDTSISTAYMELSRLRSDDTAVYYCARDYGDYGMDYWGQGTTVTVSS
VL: DIVMTQSPDSLAVSLGERATINCRASKSVSTSGYSFMHWYQQKPGQPPKLLIYLASNLESGVPDRFSGSGSGTDFTLTISSLQAEDVAVYYCQHSREVPWTFGQGTKVEIK
modifications: auristatin drug linker compound 37, 4-load
B2: h1F6-38(4): 4-load auristatin ADC targeting CD70: h1F6 antibody conjugated to drug linker compound 38 (conjugate, chains of the INN, looked up)
VH: QVQLVQSGAEVKKPGASVKVSCKASGYTFTNYGMNWVRQAPGQGLKWMGWINTYTGEPTYADAFKGRVTMTRDTSISTAYMELSRLRSDDTAVYYCARDYGDYGMDYWGQGTTVTVSS
VL: DIVMTQSPDSLAVSLGERATINCRASKSVSTSGYSFMHWYQQKPGQPPKLLIYLASNLESGVPDRFSGSGSGTDFTLTISSLQAEDVAVYYCQHSREVPWTFGQGTKVEIK
modifications: auristatin drug linker compound 38, 4-load
B3: h1F6-mc-vc-MMAF(4): comparator 4-load h1F6 ADC having an mc-vc-MMAF drug linker (conjugate, chains of the INN, looked up)
VH: QVQLVQSGAEVKKPGASVKVSCKASGYTFTNYGMNWVRQAPGQGLKWMGWINTYTGEPTYADAFKGRVTMTRDTSISTAYMELSRLRSDDTAVYYCARDYGDYGMDYWGQGTTVTVSS
VL: DIVMTQSPDSLAVSLGERATINCRASKSVSTSGYSFMHWYQQKPGQPPKLLIYLASNLESGVPDRFSGSGSGTDFTLTISSLQAEDVAVYYCQHSREVPWTFGQGTKVEIK
modifications: mc-vc-MMAF, 4-load
notes: comparator 4-load h1F6 ADC having an mc-vc-MMAF drug linker

How the values were obtained:
Format in all cases: cell-based
[1] = system: MDR− HL60 acute myeloid leukemia cell line; experiment: In vitro cytotoxicity (CellTiter-Glo cell proliferation assay), free drugs on HL60; settings: Homo sapiens, HL-60, 96 h, read-out: In vitro IC50 HL60 (MDR−)
Protocol: (§1) The cytotoxicity of an auristatin Ligand Drug Conjugate or free auristatin drug was measured by a cell proliferation assay employing the protocol described in Promega Corp. Technical Bulletin TB288; Mendoza et al., 2002, Cancer Res. 62:5485-5488), the methods of which is specifically incorporated by reference herein. Briefly, an aliquot of 100 μl of cell culture containing about […] (e.g., HL-60, SK-MEL-5, etc.) in medium is deposited in each well of a 96-well, opaque-walled plate. Control wells were prepared containing medium and without cells. Free Drug or conjugate is added to the experimental wells and incubated for 96 h and are then equilibrated to room temperature for approximately 30 minutes whereupon a volume of CellTiter-Glo™ reagent equal to the volume of cell culture medium present in each well is added. The contents are mixed for 2 minutes on an orbital shaker to induce cell lysis and the plate is incubated at room temperature for 10 minutes to stabilize the luminescence signal for recordation.

[2] = system: MDR+ HL60/RV acute myeloid leukemia cell line; experiment: In vitro cytotoxicity (CellTiter-Glo cell proliferation assay), free drugs on HL60/RV; settings: Homo sapiens, HL-60, 96 h, read-out: In vitro IC50 HL60/RV (MDR+)
Protocol: as §1

SK-MEL-5 Melanoma = experiment: In vitro cytotoxicity, free drugs on SK-MEL-5; settings: Homo sapiens, SK-MEL-5; free drug
Protocol: as §1

A2058 Melanoma = experiment: In vitro cytotoxicity, free drugs on A2058; settings: Homo sapiens, A2058; free drug
Protocol: as §1

IGR-37 Melanoma = experiment: In vitro cytotoxicity, free drugs on IGR-37; settings: Homo sapiens, IGR-37; free drug
Protocol: as §1

A375 Melanoma = experiment: In vitro cytotoxicity, free drugs on A375; settings: Homo sapiens, A-375; free drug
Protocol: as §1

SK-MEL-28 Melanoma = experiment: In vitro cytotoxicity, free drugs on SK-MEL-28; settings: Homo sapiens, SK-MEL-28; free drug
Protocol: as §1

[3] = In vitro cytotoxicity, free drugs on Colo-853; settings: free drug; read-out: In vitro IC50 Colo-853 Colon Cancer
Protocol: as §1

L428 Hodgkin Lymphoma = experiment: In vitro cytotoxicity, 4-load auristatin ADCs on L428; settings: 4-load ADC
Protocol: as §1

[4] = system: A498 Renal Cell Carcinoma; experiment: In vitro cytotoxicity, 4-load auristatin ADCs on A498; settings: 4-load ADC
Protocol: as §1

[5] = system: 786-O Renal Cell Carcinoma; experiment: In vitro cytotoxicity, 4-load auristatin ADCs on 786-O; settings: 4-load ADC
Protocol: as §1

Row | Molecule | IC50 [1] | IC50 [2] | IC50 (SK-MEL-5 Melanoma) | IC50 (A2058 Melanoma) | IC50 (IGR-37 Melanoma) | IC50 (A375 Melanoma) | IC50 (SK-MEL-28 Melanoma) | IC50 [3] | In vitro IC50 L428 Hodgkin Lymphoma (L428 Hodgkin Lymphoma) | In vitro IC50 A498 Renal Cell Carcinoma [4] | In vitro IC50 786-O Renal Cell Carcinoma [5]
1 | CC[C@H](C)[C@@H]([C@@H](CC(=O)N1CCC[C@H]1[C@H](OC)[C@@H](C)C(=O)N[C@@H](Cc1ccccc1)C(=O)O)OC)N(C)C(=O)[C@@H](NC(=O)[C@H](C(C)C)N(C)CCC(C)C)C(C)C [Compound 21, 3-Methylbutyl-AF] (X22-V[Dil][Dolaproine]F-OH) | 9 nM | 46.3 nM |  |  |  |  |  |  |  |  | 
2 | CC[C@H](C)[C@@H]([C@@H](CC(=O)N1CCC[C@H]1[C@H](OC)[C@@H](C)C(=O)N[C@@H](Cc1ccccc1)C(=O)O)OC)N(C)C(=O)[C@@H](NC(=O)[C@H](C(C)C)N(CC)CC)C(C)C [Compound 22, Bis(ethyl)-AF] (X17-V[Dil][Dolaproine]F-OH) | 13.6 nM | 202 nM |  |  |  |  |  |  |  |  | 
3 | CCCN(CCC)[C@H](C(=O)N[C@H](C(=O)N(C)[C@@H]([C@@H](C)CC)[C@@H](CC(=O)N1CCC[C@H]1[C@H](OC)[C@@H](C)C(=O)N[C@@H](Cc1ccccc1)C(=O)O)OC)C(C)C)C(C)C [Compound 23, Bis(propyl)-AF] (X23-V[Dil][Dolaproine]F-OH) | 6.2 nM | 437 nM |  |  |  |  |  |  |  |  | 
4 | CC[C@H](C)[C@@H]([C@@H](CC(=O)N1CCC[C@H]1[C@H](OC)[C@@H](C)C(=O)N[C@@H](Cc1ccccc1)C(=O)O)OC)N(C)C(=O)[C@@H](NC(=O)[C@H](C(C)C)N(C)CCN(C)C(=O)OC(C)(C)C)C(C)C [Compound 24, Boc-(N-methyl-ethyl)-AF] (Boc-[X7]V[Dil][Dolaproine]F-OH) |  |  | 5.7 nM | 5.2 nM | 23.1 nM | 4.9 nM | 13.9 nM | 19.6 nM |  |  | 
5 | CC[C@H](C)[C@@H]([C@@H](CC(=O)N1CCC[C@H]1[C@H](OC)[C@@H](C)C(=O)N[C@@H](Cc1ccccc1)C(=O)O)OC)N(C)C(=O)[C@@H](NC(=O)[C@H](C(C)C)N(C)CCCN(C)C(=O)OC(C)(C)C)C(C)C [Compound 25, (Boc-N-methyl)-propyl-AF] (Boc-[X5]V[Dil][Dolaproine]F-OH) |  |  | 6.1 nM | 4 nM | 16.1 nM | 5.9 nM | 17.2 nM | 15.1 nM |  |  | 
6 | CC[C@H](C)[C@@H]([C@@H](CC(=O)N1CCC[C@H]1[C@H](OC)[C@@H](C)C(=O)N[C@@H](Cc1ccccc1)C(=O)O)OC)N(C)C(=O)[C@@H](NC(=O)[C@H](C(C)C)N(C)CCCCCN(C)C(=O)OC(C)(C)C)C(C)C [Compound 26, (Boc-N-methyl)-pentyl-AF] (Boc-[X2]V[Dil][Dolaproine]F-OH) |  |  | 0.9 nM | 0.9 nM | 6.5 nM | 2.1 nM | 9.6 nM | 12.5 nM |  |  | 
7 | B1 |  |  |  |  |  |  |  |  | 2 ng/mL | 39 ng/mL | 23 ng/mL
8 | B2 |  |  |  |  |  |  |  |  | 2 ng/mL | 36 ng/mL | 12 ng/mL
9 | B3 |  |  |  |  |  |  |  |  | 7 ng/mL | 8 ng/mL | 5 ng/mL
